Melting point data for one molecule are collected here from US8815847B2, “[1,2,4]thiadiazine 1,1-dioxide compounds for lowering serum uric acid” (Anadys Pharmaceuticals, Inc., priority 2011, dated 2014).

The melting point is the temperature, or range, at which the solid turns liquid.

For the molecule `CS(=O)(=O)Nc1ccc2c(c1)S(=O)(=O)N=C(C1=C(O)[C@@H]3C4CCC(CC4)[C@@H]3N(Cc3ccc(F)cc3)C1=O)N2`, the melting point is 203.8 to 205.7 °C.
